Laboratory results as given in patent US9884849B2, “Fluorinated benzofuranyl-pyrimidine derivatives containing a sulfoximine group” (Bayer Pharma Aktiengesellschaft, priority 2014, dated 2018).

Test: Caco-2 permeation assay (Method 4)
Assay type: in vitro ADME
Settings: human, 2 μM test compound; for efflux ratio at 2 h, 2 μM: Caco-2, pH 7.2, read-out: Efflux ratio (Papp B-A/Papp A-B); for Papp A→B at 2 h, 2 μM / Papp B→A at 2 h, 2 μM: Caco-2, 2 h incubation, pH 7.2; for Papp A→B at 2 h, 2 μM: read-out: Papp A-B (Mari); for Papp B→A at 2 h, 2 μM: read-out: Papp B-A (Mari)
Experimental: 4. Caco-2 Permeation Assay:
Caco-2 cells (purchased from DSMZ Braunschweig, Germany) were seeded at a density of 4.5×10^4 cells per well on 24 well insert plates, 0.4 μm pore size, and grown for 15 days in DMEM medium supplemented with 10% fetal bovine serum, 1% GlutaMAX (100×, GIBCO), 100 U/mL penicillin, 100 μg/mL streptomycin (GIBCO) and 1% non essential amino acids (100×). Cells were maintained at 37° C. in a humified 5% CO2 atmosphere. Medium was changed every 2-3 day. Before running the permeation assay, the culture medium was replaced by a FCS-free hepes-carbonate transport buffer (pH 7.2). For assessment of monolayer integrity the transepithelial electrical resistance (TEER) was measured. Test compounds were predissolved in DMSO and added either to the apical or basolateral compartment in final concentration of 2 μM in transport buffer. Before and after 2 h incubation at 37° C. samples were taken from both compartments. Analysis of compound content was done after precipitation with methanol by LC/MS/MS analysis. Permeability (Papp) was calculated in the apical to basolateral (A→B) and basolateral to apical (B→A) directions. The apparent permeability was calculated using following equation: Papp=(Vr/Po)(1/S)(P2/t)
Where Vr is the volume of medium in the receiver chamber, Po is the measured peak area or height of the test drug in the donor chamber at t=o, S the surface area of the monolayer, P2 is the measured peak area of the test drug in the acceptor chamber after 2 h of incubation, and t is the incubation time. The efflux ratio basolateral (B) to apical (A) was calculated by dividing the Papp B-A by the Papp A-B. In addition the compound recovery was calculated.

Structure (SMILES)	efflux ratio at 2 h, 2 μM	Papp A→B at 2 h, 2 μM [×10⁻⁶ cm/s]	Papp B→A at 2 h, 2 μM [×10⁻⁶ cm/s]
CS(=N)(=O)Cc1cccc(Nc2ncc(F)c(-c3ccc(F)c4ccoc34)n2)c1 (racemic) [Example 4, (rac)-5-Fluoro-4-(4-fluoro-1-benzofuran-7-yl)-N-{3-[(S-methylsulfonimidoyl)-methyl]phenyl}-pyrimidin-2-amine]	0.57	18.3	10.4
CS(=N)(=O)Cc1cccc(Nc2ncc(F)c(-c3ccc(F)c4ccoc34)n2)c1 (single isomer, unassigned) [Example 6, 5-Fluoro-4-(4-fluoro-1-benzofuran-7-yl)-N-{3-[(S-methylsulfonimidoyl)-methyl]-phenyl}-pyrimidin-2-amine]	0.51	22.1	11.3
